The record followed here is EP0279458A1, “2-Propyl amine derivatives, processes for their preparation and their use” (GÖDECKE AKTIENGESELLSCHAFT, priority 1987, dated 1988).

Structures can show the parent of a compound that is named as a salt.

For this assay, the system named is Proteinkinase C (PKC). In words: Inhibition of PS/DO-mediated protein kinase C activity (32P incorporation into histone H-1). Format: biochemical, Hühner. From the text: Zur Klärung des hemmenden Einflusses der erfindungsgemäßen Verbindungen der allgemeinen Formel I auf die Calcium- und Phospholipid-abhängige Proteinkinase (PKC) wurde diese Enzymaktivität ausgehend von einem Hühnermagenextrakt angereichert. In Anlehnung an in der Literatur beschriebene Reinigungsschritte (J. Biol. Chem. 260, S. 15718-15722, 1985) wurde bei der aus 2 Schritten bestehenden Reinigung die Eigenschaft des Enzyms ausgenutzt, in Anwesenheit von Calcium an Zellmembranen zu binden und durch Calciumchelatoren (EGTA) wieder abgelöst zu werden. Beim 1. Anreicherungsschritt erfolgte die Bindung der PKC an Membranen des Hühnermagenextraktes und im 2. Schritt an sogenannte Inside/Out-Vesikel von Erythrozyten. Nach Ablösung von den Erythrozyten-Membranen und Umpufferung lag die PKC-Präparation in 10 mM HEPES, 1 mM DTT, 0,1% PEG 20000, pH 7,5 vor und konnte unter diesen Bedingungen bei -70°C für mehrere Monate ohne Aktivitätsverlust gelagert werden.
Die Aktivität des Enzyms wurde über den Einbau von Phosphor-32-markiertem Phosphat in das durch PKC phosphorylierbare Protein Histon H-1 bestimmt. Der Test enthält dabei folgende Kumponenten: 50 mM HEPES (pH 7,5), 1 mM DTT, 5 mM MgCl₂, ca. 10 µM freies Ca²⁺, 200 µg/ml Histon, 5 µg/ml Phosphatidylserin, 1 µg/ml 1,2-Diolein, 10 µM ATP, eine jeweils geeignete Menge der PKC-Präparation und gegebenenfalls eine Testsubstanz. Die unter Standardbedingungen gemessene Kinase-Aktivität in Anwesenheit von PKC-Aktivatoren (und ohne Testsubstanz) wurde jeweils als 100% gesetzt und die Hemmwirkung der Verbindungen der allgemeinen Formel I prozentual darauf bezogen.
In Tabelle I ist die Inhibierung von PS/DO [PS: Phosphatidylserin, DO: 1,2-Diolein] vermittelter Proteinkinase C-Aktivität angegeben.

Consider `CCCCCCCCCCCCCCCCCCOCC(CO)N(CC)CC.O=C(O)C(=O)O` (racemic) [Beispiel 2a, (±)-2-Diethylamino-3-octadecyloxy-1-propanol Oxalat], for which the “Inhibierung der PS/ DO-vermittelten PKC-Aktivität (%)” value (konz. 1x10^-4 mol/l, 100 µM) is 100%; the “Inhibierung der PS/ DO-vermittelten PKC-Aktivität (%)” value (konz. 1x10^-5 mol/l, 10 µM) worked out at 78%; the “Inhibierung der PS/ DO-vermittelten PKC-Aktivität (%)” value (konz. 1x10^-6 mol/l) was 11%.
Consider `CCCCCCCCCCCCCCOCC(COC(C)=O)N(C)C` (racemic) [Beispiel 1b, (±)-2-Dimethylamino-3-tetradecyloxy-1-propylacetat Oxalat], for which the “Inhibierung der PS/ DO-vermittelten PKC-Aktivität (%)” value (konz. 1x10^-5 mol/l, 10 µM) is 36%.
For `CCCCCCCCCCCCCCCCCCOCC(N)CO` (racemic) [Beispiel 6, (±)-2-Amino-3-octadecyloxy-1-propanol, reference compound], the “Inhibierung der PS/ DO-vermittelten PKC-Aktivität (%)” value is recorded as 69% (konz. 1x10^-5 mol/l, 10 µM) and 11% (konz. 1x10^-6 mol/l).
Take `CCCCCCCCCCCCCCCCCCOCC(CO)NCC` (racemic) [Beispiel 2, (±)-2-Ethylamino-octadecyloxy-1-propanol · Hydrochlorid]: the “Inhibierung der PS/ DO-vermittelten PKC-Aktivität (%)” value runs as follows: (konz. 1x10^-4 mol/l, 100 µM) 99%; (konz. 1x10^-5 mol/l, 10 µM) 91%; (konz. 1x10^-6 mol/l) 23%.
Consider `CCCCCCCCCCCCCCCCOCC(COC(C)=O)N(C)C` (racemic) [Beispiel 1a, (±)-2-Dimethylamino-3-hexadecyloxy-1-propylacetat Oxalat], for which the “Inhibierung der PS/ DO-vermittelten PKC-Aktivität (%)” value (konz. 1x10^-5 mol/l, 10 µM) came to 23%.
On to `CCCCCCCCCCCCCCCCCCSCC(N)CO` (racemic) [Beispiel 5, (±)-2-Amino-3-octadecylthio-1-propanol], for which the “Inhibierung der PS/ DO-vermittelten PKC-Aktivität (%)” value (konz. 1x10^-5 mol/l, 10 µM) is reported as 39% and the “Inhibierung der PS/ DO-vermittelten PKC-Aktivität (%)” value (konz. 1x10^-6 mol/l) stood at 12%.
Regarding `CCCCCCCCCCCCCCCCCCOCC(COC(=O)c1ccccc1)[N+](C)(C)C` (racemic) [Beispiel 4, (±)-1-Benzoyloxy-3-octadecyloxy-2-propyl-trimethylammoniumjodid], the “Inhibierung der PS/ DO-vermittelten PKC-Aktivität (%)” value stood at 104% (konz. 1x10^-4 mol/l, 100 µM); 90% (konz. 1x10^-5 mol/l, 10 µM); 21% (konz. 1x10^-6 mol/l).
With `CCCCCCCCCCCCCCCCCCOCC(COC(C)=O)N(C)C` (racemic) [Beispiel 1, (±)-2-Dimethylamino-3-octadecyloxy-1-propylacetat · Hydrochlorid], the “Inhibierung der PS/ DO-vermittelten PKC-Aktivität (%)” value (konz. 1x10^-5 mol/l, 10 µM) is 28%.
